In assay [1] the test system is A2058 (human melanoma). Nature of the assay: MTS cytotoxicity assay (CellTiter 96 AQueous One), compounds, 72 h. Type of assay: cell-based. Particulars: A2058 cells. The method, then: (§1) Compounds 1 − 5 were tested for their cytotoxic effects against several cancer cell lines, including MOLM-13 (acute myeloid leukemia), MV-4-11 (biphenotypic B myelomonocytic leukemia), THP-1 (acute monocytic leukemia), A2058 (human melanoma), MCF7 (human breast adenocarcinoma), and non-cancerous MRC-5 (normal lung fibroblast) using an MTS based CellTiter 96® AQueous One Solution Assay. In short, the cells were cultured in appropriate media supplemented with 10% fetal bovine serum (FBS): MOLM-13, MV-4-11 cells in RPMI medium, THP-1 cells in RPMI medium with ultra-low endotoxin FBS, MCF7 and MRC-5 in MEM Eagle medium along with other amino acid supplements, and A2058 cells in DMEM medium. After harvesting, they were seeded into 96-well plates. The cells were then treated with the test compounds at various concentrations and incubated for 72 h. Following the incubation period, an MTS assay was conducted, and the absorbance of the solution was measured using a microplate reader spectrophotometer (Tecan spark plate reader) at a wavelength of 490 nm. The half-maximum inhibitory concentration (IC50) values were calculated using the drc_3.0–1 package in R (Supplementary page S60-S61). DMSO (10%) was used as the positive control, and cell culture media as the negative control. All samples were tested in triplicate.
(§2) The results were plotted in a dose-response curve as shown in Figure S97 and the half-maximum inhibitory concentration (IC50) values were calculated using R. A 4-parameter logistic (4PL) dose-response model was applied to analyse the relationship between the concentration and the observed response (absorbance at 490 nm). […] The model was fitted to the experimental data using the drm function from the drc_3.0-1 package in R and IC50 values were determined as the concentration (μM) corresponding to 50% cell survival.
For orientation: Tetrazolium assays rely on reduction of a dye to a coloured formazan, in cell work by metabolically active cells.

The test system of assay [2] is MRC-5 (normal lung fibroblast). The assay is described as above. Particulars: Homo sapiens, MRC5, MRC-5 normal lung fibroblasts. The assay is classed as cell-based. Here is the method:
as §1, §2

Assay [3] relates to MV-4-11 (biphenotypic B myelomonocytic leukemia). The description is as above. Type of assay: cell-based. Particulars: Homo sapiens, MV4-11, MV-4-11 cells. Here is the method:
as §1, §2

The test system of assay [4] is THP-1 (acute monocytic leukemia). The description is as above. Type of assay: cell-based. Particulars: Homo sapiens, THP-1 cells. Here is the method:
as §1, §2

Assay [5] relates to MCF7 (human breast adenocarcinoma). The description is as above. The assay is classed as cell-based. Particulars: MCF7 cells. Here is the method:
as §1, §2

The test system of assay [6] is MOLM-13 (acute myeloid leukemia). The assay is described as above. Particulars: Homo sapiens, MOLM-13 cells. Type of assay: cell-based. The method, then:
as §1, §2

The test system of assay [7] is MCF7. On the set-up: method as in PMID 30572686. Particulars: read-out: IC50 MCF7 (previously reported), cited from earlier work.
In assay [8] the test system is HL-60 (acute promyelocytic leukemia). On the set-up: method as in PMID 30572686. Particulars: HL-60 cells; read-out: IC50 HL-60 (previously reported); cited from earlier work.
Assay [9] has as its system PDGF-BB/PDGFR-ββ signalling. On the set-up: method as in PMID 27322468. Particulars: cited from earlier work.
The test system of assay [10] is insects. On the set-up: method as in doi:10.1021/np9601216. Particulars: cited from earlier work.
Assay [11] deals with plants. Particulars: cited from earlier work.
Assay [12] deals with erythropoietin gene expression. On the set-up: method as in PMID 9514014. Particulars: cited from earlier work.

pIC50: −log10 of the molar value. Where two headings read alike, the source gives them in different places. *1 amine or outer side, *2 acyl side, *3 side chain or, on linkers, in order; H or OH if unused. Where a SMILES comes first, the peptide text is derived from it. [ ]: non-standard residue; d: D form. ξ: configuration not given here. Pentanoyl(2-O,4-OH,5-Cl) = O=C(O)C(O)CC(O)CCl; NMeI = CC[CH](C)[CH](NC)C(=O)O; X1 = CC1CCN([*:1])C1C(=O)[*:2]; ξLac(3-iPr) = CC(C)CC(O)C(=O)O; NMeA = CN[CH](C)C(=O)O; βAla = NCCC(=O)O

One may read the pIC50 as −log10 of the IC50, conventionally taken in molar units. One may read the IC50 as the point on the concentration scale where inhibition reaches its midpoint.

For the molecule `CCC(C)C1NC(=O)C2C(C)CCN2C(=O)C(CC(C)C)OC(=O)CCNC(=O)C(C)N(C)C(=O)C(C(C)CC)N(C)C1=O` (stereo not shown) [Compound 5, homodestcardin] (cyclo([X1]I[NMeI][NMeA][βAla][ξLac(3-iPr)]); configuration not given here), the pIC50 is 5.59 in [1]; 5.25 in [2]; 4.90 in assay [3]; 4.80 in assay [4]; 5.68 in [5]; 5.44 in assay [6].

Take `CCC(C)C1NC(=O)C2C(C)CCN2C(=O)C(CC(O)CCl)OC(=O)CCNC(=O)C(C)N(C)C(=O)C(C(C)CC)N(C)C1=O` (stereo not shown) [Compound 2, trichomide D] (cyclo([X1]I[NMeI][NMeA][βAla][Pentanoyl(2-O,4-OH,5-Cl)]); configuration not given here): the pIC50 in assay [7] (MCF7 cell line) was 7.10; in assay [7] (MCF7 cells), 7.10; in assay [8], 6.97; in [2], 5.92; in assay [3], 6.10; in assay [4], 5.68. For the same molecule, the pIC50 in [6] is 6.30. The IC50 in [1] (value marked * expressed in nM) and in assay [5] (value marked * expressed in nM) was 40 nM throughout.

On to `C=CCC1OC(=O)CCNC(=O)C(C)N(C)C(=O)C(C(C)CC)N(C)C(=O)C(C(C)CC)NC(=O)C2C(C)CCN2C1=O` (stereo not shown) [Compound 3, destruxin-A5], for which the “Inhibition of PDGF-BB/PDGFR-ββ signalling” value in assay [9] is given as “selectively inhibit”. Besides, the pIC50 in [1] is 5.18; in [2], 4.82; in assay [3], 5.14; in assay [4], 5.06; in [5] it was 5.28; in assay [6], 5.52. Also, the Entomopathogenic activity entry in assay [10] is on record as “entomopathogenic activity”.

For `CCC(C)C1NC(=O)C2CCCN2C(=O)C(CC(C)C)OC(=O)CCNC(=O)C(C)N(C)C(=O)C(C(C)CC)N(C)C1=O` (stereo not shown) [Compound 4, homodestruxin B] (cyclo([ξLac(3-iPr)]PI[NMeI][NMeA][βAla]); configuration not given here), the Phytotoxic activity entry in [11] is “phytotoxic activity”. Besides, the pIC50 is 4.52 in [1]; < 4.40 in assay [2]; 4.84 in assay [3]; 4.79 in assay [4]; 4.91 in assay [5]; 5.26 in [6].

Regarding `CCC(C)C1NC(=O)C2CCCN2C(=O)C(CC(O)CCl)OC(=O)CCNC(=O)C(C)N(C)C(=O)C(C(C)CC)N(C)C1=O` (stereo not shown) [Compound 1, destruxin-A4 chlorohydrin] (cyclo([Pentanoyl(2-O,4-OH,5-Cl)]PI[NMeI][NMeA][βAla]); configuration not given here), the pIC50 in [1] was 5.96; in assay [2], 5.66; in assay [3], 6.15; in assay [4] it was 5.66; in [5], 6.10; in [6], 6.40. Moreover, the Erythropoietin gene expression result in [12] was “induced erythropoietin gene expression”.

Values taken from paper PMC12642047, “Marine-derived Acremonium strain prioritization using untargeted metabolomics approach for the identification of cytotoxic cyclic depsipeptides” (BMC Biotechnology, 2025).
